Laboratory results taken from patent US8404287B2, “Use of Fructus schisandrae and extracts thereof in preventing and decreasing toxic and side effects of antineoplastic drugs” (priority 2005, dated 2013).
Read-outs that look alike come from different tables or passages of the source.

Legend:
ICR mice [1] = conditions: antineoplastic agent ip once every two days x7 (Methotrexate 2, Cisplatin 2, 5-fluorouracil 30, Cytoxan 30, Vincristine 0.3 mg/kg), alone or within two hours after lignan 100 mg/kg ig
Text: The mice were divided randomly as following, 6 mice per group.

ICR mice [2] = conditions: antineoplastic agent ip once every two days x7 (Methotrexate 2, Cisplatin 2, 5-fluorouracil 30, Cytoxan 30, Vincristine 0.3, Doxorubicin 4 mg/kg), alone or within 2 h after extract 400 mg/kg ig
Text: The mice were grouped randomly as below, 6 mice per group.

[3] = system: mice with acute toxicity induced by Doxorubicin; assay: Survival rate of mice with acute toxicity induced by Doxorubicin, Schisandrin B (Example 7); format: in vivo, mouse
Procedure: Group of Doxorubicin: 42 mice were dosed intragastrically with normal saline at the 1st-3rd day of the experiment, once a day and each time with 20 ml/kg. At the 3rd day, the mice were injected into their abdominal cavities with Doxorubicin of 25 mg/kg.
At the 3rd day, the mice were injected into their abdominal cavities with 25 mg/kg of Doxorubicin 0.5 hours after drench.

ICR mice [4] = assay: Apparent condition of mice, ethanol extract and Doxorubicin (Example 2); format: in vivo, mouse; conditions: Doxorubicin alone or with extract ig 3 times
[5] = system: mice with myocardial damage induced by Doxorubicin; assay: Serum myocardium enzymes (CK, CK-MB, LDH, GOT) after Doxorubicin, Schisandrin B (Example 7)
Procedure: CK, CK-MB, LDH and GOT were determined by automatic biochemistry analyzer.
Control group: 24 mice were dosed intragastrically with normal saline at the 1st-3rd day of the experiment, once a day and each time with 20 ml/kg.
Group of Schisandrin B (SchB group): 24 mice were dosed intragastrically with SchB at the 1st-3rd day of the experiment, once a day and each time with 100 mg/kg.
Group of Doxorubicin: 42 mice were dosed intragastrically with normal saline at the 1st-3rd day of the experiment, once a day and each time with 20 ml/kg.
At the 5th day (48 hours after injection of Doxorubicin into abdominal cavity), blood were taken from 6 mice of each group. The serum was separated by regular separation. CK, CK-MB, LDH and GOT were determined by automatic biochemistry analyzer.

[6] = system: mice with acute toxicity induced by Doxorubicin; assay: Survival rate of mice with acute toxicity induced by Doxorubicin, ethanol extract (Example 2); format: in vivo, mouse
Procedure: Group of Doxorubicin (the Dox group): 42 mice were dosed intragastrically with normal saline in an amount of 20 ml/kg each time at the 1st-3rd day of the experiment, once a day. At the 3rd day, the mice were injected with Doxorubicin of 25 mg/kg into their abdominal cavities.
Group 1 of Doxorubicin plus the extract of Fructus schisandrae (group 1 of Dox +X): 24 mice were dosed intragastrically with the extract of Fructus schisandrae in an amount of 400 mg/kg each time at the 1st-3rd day of the experiment, once a day. At the 3rd day, the mice were injected with 25 mg/kg of Doxorubicin into their abdominal cavities 0.5 hours after drench.
Group 2 of Doxorubicin plus the extract of Fructus schisandrae (group 2 of Dox +X): 24 mice were dosed intragastrically with the extract of Fructus schisandrae in an amount of 200 mg/kg each time at the 1st-3rd day of the experiment, once a day. At the 3rd day, the mice were injected with 25 mg/kg of Doxorubicin into their abdominal cavities 0.5 hours after drench.

ICR mice [7] = conditions: Doxorubicin alone or in combination with dibenzocyclooctadiene lignans
Procedure: Doxorubicin Hydrochloride Injection was obtained from Italy pharmacia Co. Six Dibenzocyclooctadiene lignans were obtained from National Institute for the Verification of Pharmaceutical and Biological Products (Product No.: 110765-200407), which were dissolved in 0.5% Poloxamer. Female ICR mice with a body weight of 25-30 g were obtained from Shanghai Experimental Animal Center, which were grouped randomly into 4 groups, 10 mice per group.
Group of Doxorubicin (Dox group): 10 mice were injected into their abdominal cavities with 2 mg/kg of Doxorubicin once every two days, consecutively for 7 times.

[8] = system: mice with myocardial damage induced by Doxorubicin; assay: Serum myocardium enzymes (CK, CK-MB, LDH, GOT) after Doxorubicin, ethanol extract (Example 2); format: in vivo, mouse; conditions: Dox group: Doxorubicin 25 mg/kg ip at 3rd day; vs control group and X group (P<0.05); 48 h after injection
Procedure: Ethanol extract of Fructus schisandrae prepared from Example 1 was dissolved in 0.5% Poloxamer. CK (creatine kinase), CK-MB (creatine kinase isozyme), LDH (lactic dehydrogenase) and GOT (glutamic-oxalocetic transaminase) were detected by automatic biochemistry analyzer.
The serum was separated by regular separation and frozen at −80° C.

[9] = system: left ventricular myocardium matrix metalloproteinase (MMP-2); assay: Left ventricular myocardium MMP-2 activity, Schisandrin B (Example 7); format: in vivo, mouse
Procedure: The experimental method was carried out as those described in Example 2 (1.4).

Question: Which Heart weight (ICR mice [1]) does the source give for `O=P1(N(CCCl)CCCl)NCCCO1` (stereo not shown) [Cytoxan] here?
Answer: The Heart weight was 162.6 ± 31.4 mg.

Question: What about the Kidney weight (ICR mice [1]) of the same compound?
Answer: The Kidney weight was 396.3 ± 54.7 mg.

Question: And the Liver weight (ICR mice [1])?
Answer: Its Liver weight is 1.88 ± 0.36 g.

Question: What about the Spleen weight (ICR mice [1]) of the same compound?
Answer: The Spleen weight was 113.5 ± 24.7 mg.

Question: What about the Thymus weight (ICR mice [1]) of the same compound?
Answer: The Thymus weight was 49.8 ± 12.4 mg.

Question: What about the Heart weight (ICR mice [2]) of the same compound?
Answer: The Heart weight was 162.6 ± 31.4 mg.

Question: What about the Kidney weight (ICR mice [2]) of the same compound?
Answer: The Kidney weight was 396.3 ± 54.7 mg.

Question: And the Liver weight (ICR mice [2])?
Answer: Its Liver weight is 1.88 ± 0.36 g.

Question: What about the Spleen weight (ICR mice [2]) of the same compound?
Answer: Its Spleen weight is 113.5 ± 24.7 mg.

Question: What about the Thymus weight (ICR mice [2]) of the same compound?
Answer: The Thymus weight was 49.8 ± 12.4 mg.

Question: What does the source list for `COc1cccc2c1C(=O)c1c(O)c3c(c(O)c1C2=O)C[C@@](O)(C(=O)CO)C[C@@H]3O[C@H]1C[C@H](N)[C@H](O)[C@H](C)O1` [Doxorubicin]?
Answer: survival rate on the 7th day ([3]; Doxorubicin 25 mg/kg ip alone): 0; day on which death of mice occurred ([3]; Doxorubicin 25 mg/kg ip, alone or with Sch B 100, 50 or 25 mg/kg ig days 1-3): 4 days; apparent condition of mice (ICR mice [4]): in bad conditions, manifested as asthenia, listlessness, hypotrichosis; 4 serum enzyme indexes (CK, CK-MB, LDH, GOT) ([5]; Doxorubicin 25 mg/kg ip alone, vs control group and Sch B group (P<0.05), 48 h after injection): significantly higher; survival rate on the 7th day ([6]; Dox group: Doxorubicin 25 mg/kg ip alone): 3.7%; day on which death of mice occurred ([6]; Doxorubicin 25 mg/kg ip, alone or with extract 400 or 200 mg/kg ig days 1-3): 5 days; apparent conditions of mice (ICR mice [7]): in bad conditions after 7-8 days, manifested as asthenia, listlessness and hypotrichosis; serum myocardium enzyme spectrum indexes (CK, CK-MB, LDH, GOT) [8]: significantly higher

Question: Which “death of mouse induced by Doxorubicin” value ([3]; FIG. 15) does the source give for `COc1cc2c(c(OC)c1OC)-c1c(cc3c(c1OC)OCO3)CC(C)C(C)C2` (stereo not shown) [Schisandrin B] here?
Answer: The value was “inhibit the death”.

Question: And the “increase of mouse serum creatine kinase (CK) induced by Doxorubicin” value ([5]; FIG. 10)?
Answer: Its value is “inhibit the increase”.

Question: And the “increase of mouse serum creatine kinase isozyme (CK-MB) induced by Doxorubicin” value ([5]; FIG. 11)?
Answer: The value was “inhibit the increase”.

Question: And the “increase of mouse serum glutamic-oxalocetic transaminase (GOT) induced by Doxorubicin” value ([5]; FIG. 12)?
Answer: Its value is “inhibit the increase”.

Question: And the “increase of mouse serum lactic dehydrogenase (LDH) induced by Doxorubicin” value ([5]; FIG. 13)?
Answer: The value was “inhibit the increase”.

Question: And the “increase of mouse left ventricular myocardium MMP-2 activity induced by Doxorubicin” value ([9]; FIG. 14)?
Answer: The value was “inhibit the increase”.

Question: And the “left ventricular myocardium MMP-2 activity” value ([9]; Sch B group: 100 mg/kg ig days 1-3, no Doxorubicin)?
Answer: Its value is “No left ventricular myocardium matrix metalloproteinase (MMP-2) activity”.
